Data published in patent US20190105367A1, “ANTIMICROBIAL 4-OXOQUINOLIZINES” (Emergent Product Development Gaithersburg Inc., priority 2011, published 2019).
In brackets after ≈: the same amount, converted by molar mass. Read-outs that look alike come from different tables or passages of the source.

Experiments:
S. pneumoniae 49619 = assay: MIC, panel of quinolone-resistant strains (Example 2); format: cell-based, Streptococcus pneumoniae; conditions: Streptococcus pneumoniae, 49619; LEV S; read-out: MIC S. pneumoniae 49619
[1] = tested on: Acinetobacter sp. (H064200250); assay: Preliminary MBC without and with sub-inhibitory polymyxin B (Example 4); format: cell-based; conditions: preliminary MBC
Experimental: The plates were incubated for 18-20 hours at 37° C. The MBC was read as the lowest concentration at which colony growth was ca. 90% less than the positive control (i.e. usually where single colonies or no colonies were observed).

E. cloacae 13047 = assay: MIC, standard panel of Gram-positive and Gram-negative strains (Example 2); format: cell-based, Enterobacter cloacae; conditions: Enterobacter cloacae, 13047; read-out: MIC E. cloacae 13047
E. faecalis 29212 = assay: as above; format: cell-based, Enterococcus faecalis; conditions: Enterococcus faecalis, 29212; read-out: MIC E. faecalis 29212
A. baumannii J2 = assay: Preliminary MBC without and with sub-inhibitory polymyxin B (Example 4); format: cell-based, Acinetobacter baumannii; conditions: preliminary MBC
Cytotoxicity (Example 7) = format: cell-based; conditions: human, HEPG2 V1 cells
Experimental: The 4-oxoquinolizine compounds of the invention preferably have a low cytotoxicity against human cells. […].
Cytotoxicity was determined for the instant 4-oxoquinolizine compounds which show low cytotoxicity. (see Table 17 following). […]

A. baumannii A329 = assay: Preliminary MBC without and with sub-inhibitory polymyxin B (Example 4); format: cell-based, Acinetobacter baumannii; conditions: for MBC: 2nd experiment
A. baumanii 19606 = assay: MIC, standard panel of Gram-positive and Gram-negative strains (Example 2); format: cell-based; conditions: Acinetobacter baumannii
S. aureus SMITH = assay: MIC, panel of quinolone-resistant strains (Example 2); format: cell-based; conditions: Staphylococcus aureus; CIP R; read-out: MIC S. aureus SMITH
A. baumannii A489 = assay: Preliminary MBC without and with sub-inhibitory polymyxin B (Example 4); format: cell-based, Acinetobacter baumannii; conditions: preliminary MBC
E. faecium 19434 = assay: MIC, standard panel of Gram-positive and Gram-negative strains (Example 2); format: cell-based; conditions: Enterococcus faecium
S. aureus 101 = assay: as above; format: cell-based; conditions: Staphylococcus aureus
B. thailandensis = format: cell-based, Burkholderia thailandensis
[2] = tested on: strains of A. baumannii and one strain of Acinetobacter sp.; assay: MIC without polymyxin B, panel of Acinetobacter strains (Example 4); format: cell-based
[3] = Acinetobacter, Acinetobacter spp. H064200250 (OXA51), +[…] PB, 2nd experiment, read-out: MBC
[4] = Acinetobacter, read-out: MBC +[…] PB, Acinetobacter spp. H064200250, +[…] polymyxin B, 1st experiment
[5] = Acinetobacter baumannii, J2, A. baumannii J2, +[…] PB, 2nd experiment, read-out: MBC
[6] = Acinetobacter baumannii, J2, read-out: MBC +[…] PB, A. baumannii J2, +[…] polymyxin B, 1st experiment
[7] = Acinetobacter baumannii, A329, A. baumannii A329, +0.06 μg/ml PB, read-out: MBC
[8] = Acinetobacter baumannii, A489, A. baumannii A489, +[…] PB, 2nd experiment, read-out: MBC
[9] = Acinetobacter baumannii, A489, read-out: MBC +[…] PB, A. baumannii A489, +[…] polymyxin B, 1st experiment

Compound | MIC (S. pneumoniae 49619) [µg/mL] | MBC [1, 3] [µg/mL] | MBC [1, 4] [µg/mL] | MIC (E. cloacae 13047) [µg/mL] | MIC (E. faecalis 29212) [µg/mL] | MBC (A. baumannii J2; [5]) [µg/mL] | MBC (A. baumannii J2; [6]) [µg/mL] | IC50 (Cytotoxicity (Example 7)) [µM] | MBC (A. baumannii A329; [7]) [µg/mL] | MIC (A. baumanii 19606) [µg/mL] | MIC (S. aureus SMITH) [µg/mL] | MBC (A. baumannii A489; [8]) [µg/mL] | MBC (A. baumannii A489; [9]) [µg/mL] | further results
Cc1c(-c2ccc(CN)c(F)c2)ccn2c(=O)c(C(=O)O)cc(C3CC3)c12 [Compound 4, 8-(3-fluoro-4-aminomethyl-phenyl)-1-cyclopropyl-9-methyl-4-oxo-quinolizine-3-carboxylic acid] | 0.125 (≈ 0.341 µM) | 0.5 (≈ 1.36 µM) | 8 (≈ 21.8 µM) | 0.06 (≈ 0.164 µM) | 0.125 (≈ 0.341 µM) | 0.06 (≈ 0.164 µM) | 1 (≈ 2.73 µM) | 60 | 8 (≈ 21.8 µM) | 0.25 (≈ 0.682 µM) | 0.125 (≈ 0.341 µM) | 0.06 (≈ 0.164 µM) | 1 (≈ 2.73 µM) | –
Cc1c(-c2cc(Cl)c(N)c(Cl)c2)ccn2c(=O)c(C(=O)O)cc(C3CC3)c12 [Compound 3, 8-(3,5-dichloro-4-amino-phenyl)-1-cyclopropyl-9-methyl-4-oxo-quinolizine-3-carboxylic acid] | 0.5 (≈ 1.24 µM) | 0.06 (≈ 0.149 µM) | 0.5 (≈ 1.24 µM) | 0.5 (≈ 1.24 µM) | 0.016 (≈ 0.0397 µM) | ≤ 0.03 | 0.125 (≈ 0.31 µM) | 50 | 0.25 (≈ 0.62 µM) | 0.25 (≈ 0.62 µM) | 0.5 (≈ 1.24 µM) | ≤ 0.03 | 0.06 (≈ 0.149 µM) | MIC (E. faecium 19434): 0.5 µg/mL (≈ 1.24 µM); MIC (S. aureus 101): 0.06 µg/mL (≈ 0.149 µM)
8-[(3S)-3-aminocyclopentyl]-1- cyclopropyl-7-fluoro-9-methyl- 4-oxo-quinolizine-3-carboxylic acid [Compound 10, reference compound] | – | – | – | – | – | – | – | – | – | – | – | – | – | MBC ([1]; Acinetobacter spp. H064200250 (OXA51), +[…] PB, 2nd experiment): 0.5 µg/mL; MBC ([1]; Acinetobacter spp. H064200250 (OXA51), without PB, 2nd experiment): 1 µg/mL; MBC +[…] PB ([1]; Acinetobacter spp. H064200250, +[…] polymyxin B, 1st experiment): 1 µg/mL; MBC without PB ([1]; Acinetobacter spp. H064200250, without polymyxin B, 1st experiment): 0.5 µg/mL; MBC (A. baumannii J2; A. baumannii J2, +[…] PB, 2nd experiment): 0.25 µg/mL; MBC +[…] PB (A. baumannii J2; A. baumannii J2, +[…] polymyxin B, 1st experiment): 1 µg/mL; MBC (A. baumannii J2; A. baumannii J2, without PB, 2nd experiment): 2 µg/mL; MBC without PB (A. baumannii J2; A. baumannii J2, without polymyxin B, 1st experiment): 1 µg/mL; MIC90 B. thailandensis (B. thailandensis): <0.048 µg/mL; Dilutions improvement shift on B. thailandensis MIC90 (between pH 7 and pH 5) (B. thailandensis; pH 7 vs pH 5): Yes, 2x; MBC (A. baumannii A329; A. baumannii A329, +0.06 μg/ml PB): 2 µg/mL; MBC (A. baumannii A329; A. baumannii A329, without PB): 2 µg/mL; MBC without PB (A. baumannii A329; A. baumannii A329, without polymyxin B, 1st experiment): 2 µg/mL; MIC range without PB Oct. 1, 2006 n = 8 ([2]; 1st experiment, resistant strains, ATCC 19606, A329, A390 and A473 not taken): 0.5 to 8 µg/mL; MIC range without PB Oct. 14, 2008 n = 11 ([2]; 2nd experiment, all strains except the ATCC strain): 0.5 to 2 µg/mL; MBC (A. baumannii A489; A. baumannii A489, +[…] PB, 2nd experiment): 1 µg/mL; MBC +[…] PB (A. baumannii A489; A. baumannii A489, +[…] polymyxin B, 1st experiment): 1.00 µg/mL; MBC (A. baumannii A489; A. baumannii A489, without PB, 2nd experiment): 1 µg/mL; MBC without PB (A. baumannii A489; A. baumannii A489, without polymyxin B, 1st experiment): 1 µg/mL
